Measurements published in US20260159512A1, “BCAT2 INHIBITORS” (AGIOS PHARMACEUTICALS, INC., priority 2021, published 2026).
“And” between values parts separate entries of the source, which are not always exact repeats. Equal values may be shown once.

Legend:
BCAT2 [1] = biological target: T1, BCAT2 (Homo sapiens, UniProt O15382); experiment: BCAT2 in vitro enzyme inhibition assay (resazurin/diaphorase-coupled fluorescence); format: biochemical; settings: average where tested multiple times
T1 sequence (O15382 28-392): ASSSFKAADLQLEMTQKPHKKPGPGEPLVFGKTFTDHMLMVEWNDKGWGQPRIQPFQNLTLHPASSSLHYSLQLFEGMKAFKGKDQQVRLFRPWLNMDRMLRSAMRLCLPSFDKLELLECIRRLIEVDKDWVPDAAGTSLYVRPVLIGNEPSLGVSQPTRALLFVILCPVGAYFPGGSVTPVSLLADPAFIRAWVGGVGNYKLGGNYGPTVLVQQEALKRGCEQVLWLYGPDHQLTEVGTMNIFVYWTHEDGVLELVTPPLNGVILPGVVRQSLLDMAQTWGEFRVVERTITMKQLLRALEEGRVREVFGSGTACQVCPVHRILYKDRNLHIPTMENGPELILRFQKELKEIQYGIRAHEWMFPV
Description: BCAT2 In Vitro Enzyme Inhibition Assay
1.67× hBCAT2 Enzyme Mix: 0.33 μg/mL hBCAT2, 1× Buffer
2.5× Substrate Mix: 460 μM L-leucine, 420 μM α-KetoGlutarate, 10 U/mL glutamate dehydrogenase, 10 mM NAD, 30 μg/mL diaphorase, 20 μm Resazurin
BCAT2 enzyme stock solution was diluted to prepare a 1.67× hBCAT2 Enzyme Mix. 1 μL of test compound was first added to the reaction wells followed by 30 μL of 1.67× hBCAT2 Enzyme Mix and incubated at room temperature (25° C.) for one hour. Meanwhile the Substrate Mix was prepared. The reaction was initiated by the addition of 20 μL of the 2.5× Substrate Mix, bringing the final reaction mix of all components to 1×. Reactions were quenched after one hour by the addition of 25 μL of 6% SDS and reaction progress was measured via fluorescence read (Ex 540/Em 590).
Test Compound Preparation:
Test compounds were prepared at 50× final concentration in DMSO, 1 to 3 dilutions were made for 10 points. The compounds were added to the assay as a 1 to 50 dilution (1 μL in 50 μL) to yield a top assay final concentration of 100 μM, decreasing 3-fold for 10 points. Each compound dilution series test also included an assay max (1 μL DMSO Added in lieu of compound, Full Reaction Components Included) and Min (1 μL DMSO Added in lieu of compound, 30 μl of 1.67× hBCAT2 Enzyme Mix replated by 30 μL of 1× Buffer). All tests were performed in technical duplicate.
Where a compound was tested multiple times, the average value of the tests is reported.

BCAT2 [2] = biological target: T1, BCAT2; experiment: BCAT2 in vitro cell inhibition using engineered A549 cells (KMV cell assay, 13C6-KMV by LC-MS/MS); format: cell-based; parameters: The result was an engineered A549 cell line that expressed endogenous BCAT2; endogenous in cells; host or cells: A549 cells with MUT and BCAT1 knocked out by CRISPR/CAS9; key to BCAT2 Cell Inhibition: A: less than or equal to 0.100 μM; B: greater than 0.100 and less than or equal to 0.500 μM; C: greater than 0.500 and less than or equal to 1.000 μM; d: greater than 1.000 μM; E: no fit; settings: average where tested multiple times

`CC(C)Cc1nc2cnc(-n3nccn3)cc2n1[C@@H]1COC[C@H](NC(=O)c2ccc(Cl)s2)C1` (single isomer, unassigned) [Example 140] was tested, and the IC50 (BCAT2 [1]) was over 1000 nM and the “BCAT2 Cell Inhibition” value (BCAT2 [2]) was “E”.

For `O=C(N[C@H]1CCC[C@@H](n2c(C3COCCO3)nc3cnc(-c4nc[nH]n4)cc32)C1)c1ncc(Cl)s1` (single isomer, unassigned) [Example 177], the IC50 (BCAT2 [1]) was 500 to 1000 nM and the “BCAT2 Cell Inhibition” value (BCAT2 [2]) was “E”.

`CC(C)C(O)c1nc2cnc(-c3nc[nH]n3)cc2n1[C@@H]1CCC[C@H](NC(=O)c2ncc(Cl)s2)C1` (single isomer, unassigned) [Example 182] was tested, and the IC50 (BCAT2 [1]) was at most 100 nM and the IC50 (BCAT2 [2]) was 500 to 1000 nM.

In the case of `O=C(N[C@H]1CCC[C@@H](n2c(-c3ccccc3F)nc3cnc(C4CCCO4)cc32)C1)c1ncc(Cl)s1` (single isomer, unassigned) [Example 200], the IC50 (BCAT2 [1]) is reported as 500 to 1000 nM and the “BCAT2 Cell Inhibition” value (BCAT2 [2]) is reported as “E”.

`O=C(N[C@H]1CCC[C@@H](n2c(-c3ccccc3F)nc3cnc(C4CCCO4)cc32)C1)c1ncc(Cl)s1` (single isomer, unassigned) [Example 201] was tested, and the IC50 (BCAT2 [1]) was 500 to 1000 nM and the “BCAT2 Cell Inhibition” value (BCAT2 [2]) was “E”.

In the case of `CC(C)Cc1nc2cnc(-c3ccccn3)cc2n1[C@H]1C[C@H](O)C[C@@H](NC(=O)c2ncc(Cl)s2)C1` (single isomer, unassigned) [Example 215], the IC50 (BCAT2 [1]) is reported as 500 to 1000 nM and the “BCAT2 Cell Inhibition” value (BCAT2 [2]) is reported as “E”.

`CO[C@@H]1C[C@@H](NC(=O)c2ncc(Cl)s2)C[C@@H](n2c(-c3ccccc3F)nc3cnc(-c4nc[nH]n4)cc32)C1` (single isomer, unassigned) [Example 219] gave an IC50 (BCAT2 [1]) of 100 to 500 nM and an IC50 (BCAT2 [2]) of over 1000 nM.

Work on `O=C(N[C@@H]1C[C@@H](O)C[C@H](n2c(-c3ccccc3F)nc3cnc(-c4ccn[nH]4)cc32)C1)c1ncc(Cl)s1` (single isomer, unassigned) [Example 259] yielded an IC50 (BCAT2 [1]) of 100 to 500 nM and an IC50 (BCAT2 [2]) of over 1000 nM.

For `CC(C)Cc1nc2cnc(-n3nccn3)cc2n1[C@H]1C[C@H](O)C[C@@H](NC(=O)c2ccc(Cl)s2)C1` (single isomer, unassigned) [Example 396], the IC50 (BCAT2 [1]) was at most 100 nM and the IC50 (BCAT2 [2]) was over 1000 nM.

In the case of `CO[C@@H]1C[C@@H](NC(=O)c2ncc(Cl)s2)C[C@@H](n2c(CC(C)C)nc3cnc(-c4ncc(C)o4)cc32)C1` (single isomer, unassigned) [Example 428], the IC50 (BCAT2 [1]) is reported as over 1000 nM and the “BCAT2 Cell Inhibition” value (BCAT2 [2]) is reported as “E”.

For `CO[C@H]1C[C@@H](NC(=O)c2ncc(Cl)s2)C[C@@H](n2c(CC(C)C)nc3cnc(-n4nccn4)cc32)C1` (single isomer, unassigned) [Example 440], the IC50 (BCAT2 [1]) was 500 to 1000 nM and the “BCAT2 Cell Inhibition” value (BCAT2 [2]) was “E”.

`CO[C@@H]1C[C@@H](NC(=O)c2ncc(Cl)s2)C[C@@H](n2c(CC(C)(C)C)nc3cnc(-c4ccccn4)cc32)C1` (single isomer, unassigned) [Example 441] was tested, and the IC50 (BCAT2 [1]) was over 1000 nM and the “BCAT2 Cell Inhibition” value (BCAT2 [2]) was “E”.

`CO[C@@H]1C[C@@H](NC(=O)c2ncc(Cl)s2)C[C@@H](n2c(-c3ncccc3F)nc3cnc(-c4nc[nH]n4)cc32)C1` (single isomer, unassigned) [Example 443] was tested, and the IC50 (BCAT2 [1]) was over 1000 nM and the “BCAT2 Cell Inhibition” value (BCAT2 [2]) was “E”.

`CC(C)Cc1nc2cnc(-c3cccc(F)n3)cc2n1[C@@H]1C[C@@H](O)C[C@H](NC(=O)c2ncc(Cl)s2)C1` (stereo in doubt) [Example 384, 5-chloro-N-((1R,3S,5S)-3-(6-(6-fluoropyridin-2-yl)-2-isobutyl-1H-imidazo[4,5-c]pyridin-1-yl)-5-hydroxycyclohexyl)thiazole-2-carboxamide] showed an IC50 (BCAT2 [1]) of over 1000 nM and an IC50 (BCAT2 [2]) of over 1000 nM.

Work on `CO[C@H]1C[C@H](NC(=O)c2ccc(Cl)s2)C[C@H](n2c(-c3ccccc3F)nc3cnc(-c4nc[nH]n4)cc32)C1` (stereo in doubt) [Example 411, 5-chloro-N-((1R,3S,5S)-3-(2-(2-fluorophenyl)-6-(1H-1,2,4-triazol-3-yl)-1H-imidazo[4,5-c]pyridin-1-yl)-5-methoxycyclohexyl)thiophene-2-carboxamide] yielded an IC50 (BCAT2 [1]) of 100 to 500 nM and an IC50 (BCAT2 [2]) of over 1000 nM.

With `CO[C@H]1C[C@H](NC(=O)c2ncc(Cl)s2)C[C@H](n2c(CC(C)C)nc3cnc(-c4nc[nH]n4)cc32)C1` (stereo in doubt) [Example 413, 5-chloro-N-((1R,3S,5S)-3-(2-isobutyl-6-(1H-1,2,4-triazol-3-yl)-1H-imidazo[4,5-c]pyridin-1-yl)-5-methoxycyclohexyl)thiazole-2-carboxamide] the IC50 (BCAT2 [1]) was over 1000 nM and the “BCAT2 Cell Inhibition” value (BCAT2 [2]) was “E”.

With `CO[C@H]1C[C@H](NC(=O)c2ncc(Cl)s2)C[C@H](n2c(-c3ccccc3F)nc3cnc(-n4cncn4)cc32)C1` (stereo in doubt) [Example 415, 5-chloro-N-((1R,3S,5S)-3-(2-(2-fluorophenyl)-6-(1H-1,2,4-triazol-1-yl)-1H-imidazo[4,5-c]pyridin-1-yl)-5-methoxycyclohexyl)thiazole-2-carboxamide] the IC50 (BCAT2 [1]) was over 1000 nM and the “BCAT2 Cell Inhibition” value (BCAT2 [2]) was “E”.

In the case of `CO[C@@H]1C[C@H](NC(=O)c2ncc(Cl)s2)C[C@H](n2c(-c3ccccc3F)nc3cnc(-c4nc[nH]n4)cc32)C1` (stereo in doubt) [Example 419, 5-chloro-N-((1R,3S,5R)-3-(2-(2-fluorophenyl)-6-(1H-1,2,4-triazol-3-yl)-1H-imidazo[4,5-c]pyridin-1-yl)-5-methoxycyclohexyl)thiazole-2-carboxamide], the IC50 (BCAT2 [1]) is reported as at most 100 nM and the IC50 (BCAT2 [2]) is reported as ≤ 100 nM and 100 to 500 nM.

In the case of `CO[C@@H]1C[C@H](NC(=O)c2ncc(Cl)s2)C[C@H](n2c(CC(C)C)nc3cnc(-c4nc[nH]n4)cc32)C1` (stereo in doubt) [Example 431, 5-chloro-N-((1R,3S,5R)-3-(2-isobutyl-6-(1H-1,2,4-triazol-3-yl)-1H-imidazo[4,5-c]pyridin-1-yl)-5-methoxycyclohexyl)thiazole-2-carboxamide], the IC50 (BCAT2 [1]) is reported as 500 to 1000 nM and the IC50 (BCAT2 [2]) is reported as over 1000 nM.

In the case of `CO[C@@H]1C[C@@H](NC(=O)c2ncc(Cl)s2)C[C@@H](n2c(-c3ncccc3F)nc3cnc(-c4nc[nH]n4)cc32)C1` (stereo in doubt) [Example 444, 5-chloro-N-((1S,3R,5R)-3-(2-(3-fluoropyridin-2-yl)-6-(1H-1,2,4-triazol-3-yl)-1H-imidazo[4,5-c]pyridin-1-yl)-5-methoxycyclohexyl)thiazole-2-carboxamide], the IC50 (BCAT2 [1]) is reported as at most 100 nM and the IC50 (BCAT2 [2]) is reported as at most 100 nM.

For `N#C[C@H]1[C@@H](NC(=O)c2ncc(Cl)s2)CCC[C@H]1n1c(-c2ccccc2F)nc2cnc(-c3nc[nH]n3)cc21` [Example 452, 5-chloro-N-((1S,2S,3R)-2-cyano-3-(2-(2-fluorophenyl)-6-(1H-1,2,4-triazol-3-yl)-1H-imidazo[4,5-c]pyridin-1-yl)cyclohexyl)thiazole-2-carboxamide], the IC50 (BCAT2 [1]) was over 1000 nM.

In the case of `O=C(N[C@H]1C[C@@H](n2c(-c3ccccc3F)nc3cnc(-c4nc[nH]n4)cc32)CS(=O)(=O)C1)c1ccc(Cl)s1` [Example 457, 5-chloro-N-((3S,5R)-5-(2-(2-fluorophenyl)-6-(1H-1,2,4-triazol-3-yl)-1H-imidazo[4,5-c]pyridin-1-yl)-1,1-dioxidotetrahydro-2H-thiopyran-3-yl)thiophene-2-carboxamide], the IC50 (BCAT2 [1]) is reported as 100 to 500 nM.

With `CS(=O)(=O)N1C[C@@H](NC(=O)c2ncc(Cl)s2)C[C@@H](n2c(-c3ccccc3F)nc3cnc(-c4nc[nH]n4)cc32)C1` [Example 461, 5-chloro-N-((3S,5R)-5-(2-(2-fluorophenyl)-6-(1H-1,2,4-triazol-3-yl)-1H-imidazo[4,5-c]pyridin-1-yl)-1-(methylsulfonyl)piperidin-3-yl)thiazole-2-carboxamide] the IC50 (BCAT2 [1]) was at most 100 nM.

For `COCCOc1ccccc1-c1nc2cnc(-c3nc[nH]n3)cc2n1[C@@H]1CCC[C@H](NC(=O)c2ncc(Cl)s2)C1` [Example 464, 5-chloro-N-((1S,3R)-3-(2-(2-(2-methoxyethoxy)phenyl)-6-(1H-1,2,4-triazol-3-yl)-1H-imidazo[4,5-c]pyridin-1-yl)cyclohexyl)thiazole-2-carboxamide], the IC50 (BCAT2 [1]) was at most 100 nM.
